# From patent publication US5506102A (priority 1993, dated 1996)
# How the values were obtained:
# PR-B = target: T1, PR-B (Homo sapiens, UniProt P06401); assay: PR-B transactivation of PRE2 tk-LUC; type: cell-based; details: CV-1, 10^-7 M progesterone, FIG. 4A
# T1 sequence (P06401 1-933): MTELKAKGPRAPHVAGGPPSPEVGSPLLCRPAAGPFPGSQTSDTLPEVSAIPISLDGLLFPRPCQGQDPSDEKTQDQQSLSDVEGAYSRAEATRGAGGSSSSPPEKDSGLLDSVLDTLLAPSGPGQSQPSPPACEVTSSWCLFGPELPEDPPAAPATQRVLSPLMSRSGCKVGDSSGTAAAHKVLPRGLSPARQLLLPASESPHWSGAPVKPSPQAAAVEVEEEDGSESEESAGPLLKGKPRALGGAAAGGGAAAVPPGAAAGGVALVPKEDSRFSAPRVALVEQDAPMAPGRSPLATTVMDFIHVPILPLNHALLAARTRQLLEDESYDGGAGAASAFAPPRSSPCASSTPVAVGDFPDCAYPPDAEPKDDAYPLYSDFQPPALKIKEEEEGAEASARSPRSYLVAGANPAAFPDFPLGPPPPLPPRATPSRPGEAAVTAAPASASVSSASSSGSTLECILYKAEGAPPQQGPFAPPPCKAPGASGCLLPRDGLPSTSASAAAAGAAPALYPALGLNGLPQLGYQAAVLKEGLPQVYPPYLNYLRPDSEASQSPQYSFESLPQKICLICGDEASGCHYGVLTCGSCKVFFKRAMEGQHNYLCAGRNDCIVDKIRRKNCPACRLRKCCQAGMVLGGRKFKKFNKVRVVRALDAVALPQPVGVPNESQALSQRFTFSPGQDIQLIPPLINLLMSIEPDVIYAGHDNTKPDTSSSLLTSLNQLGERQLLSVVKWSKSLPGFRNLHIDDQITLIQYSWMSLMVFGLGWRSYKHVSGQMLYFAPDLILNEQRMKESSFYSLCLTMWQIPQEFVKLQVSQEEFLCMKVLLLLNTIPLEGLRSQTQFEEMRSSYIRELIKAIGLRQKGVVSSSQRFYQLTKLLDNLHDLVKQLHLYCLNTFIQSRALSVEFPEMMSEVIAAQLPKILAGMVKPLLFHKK
# Protocol: FIGS. 4A-4B are a series of graphs showing CV-1 ([…]) or HepG2 (FIG. 4B) cells that were transiently transfected with either […] of phPR-B or phPR-A alone, or phPR-B in the presence of increasing concentrations of phPR-A, together with 5 µg/ml of the PRE2 tk-LUC reporter and 5 µg/ml of pCH110 as an internal control. HeLa cells (FIG. 4C) were transfected with either phPR-B or phPR-A together with 5 µg/ml of the pTAT2950 reporter and 5 µg/ml of pCH110 as an internal control. […] The relative luciferase activity is calculated by dividing the normalized luciferase value at a given point by that obtained in the absence of transfected receptor or ligand. The data shown represent the mean +/- average deviation from the mean of triplicate estimations;
# Both reporter plasmids were digested with XhoI and HindIII restriction enzymes and a 6.7 Kb fragment from MMTV-LUC and a 0.12 Kb fragment from PRE2 tk-CAT were isolated and ligated, resulting in a plasmid called PRE2 tk-LUC.
# Cells were seeded in 12-well, 96-well or 10 cm tissue culture plates. […] 20 μg of DNA/ml of transfection buffer were used in each transfection reaction. […]
# human vitamin D receptor = assay: VDR transcriptional activity on VDRE2 tk-LUC with PR-A, CV-1 cells; type: cell-based; details: absence or presence of progesterone, FIG. 7
# Source text: The data shown represent the mean value +/- the average deviation from the mean of triplicate determinations;
# To analyze the specificity of PR-A action, we examined its ability to affect other receptor-dependent transcription systems. For this purpose, phPR-A was cotransfected with a vector expressing the vitamin D receptor (VDR) and assayed on a VDRE2 tk-LUC reporter (available from Dr. J. Wesley Pike, Ligand Pharmaceuticals, Inc.).
smiles,measurement,setting,value
CC(=O)[C@H]1CC[C@H]2[C@@H]3CCC4=CC(=O)CC[C@]4(C)[C@H]3CC[C@]12C [progesterone],PR-B transcriptional activity on PRE2 tk-LUC,PR-B,transcriptionally active
same,effect of PR-A co-expression on hormone-dependent transactivation by VDR,human vitamin D receptor,not substantially affected
